Measured values: ChEMBL document CHEMBL5338766, “X-ray Crystal Structure-Guided Discovery of Novel Indole Analogues as Colchicine-Binding Site Tubulin Inhibitors with Immune-Potentiating and Antitumor Effects against Melanoma” (J Med Chem, 2023)

Key:
B16-F10 [1] = assay: Antitumor immunity in C57 mouse implanted with mouse B16-F10 cells assessed as increase in CD3+ CD4+ helper T cells in tumor at 2.5 mg/kg, ip administered every day for 14 days in the presence of NP19 by flow cytometric analysis (reference value: 0.332%); type: functional; conditions: time 14 day
B16-F10 [2] = assay: Antitumor activity against mouse B16-F10 cells implanted in C57 mouse assessed as tumor growth inhibition at 5 mg/kg, ip administered every day for 14 days relative to control; type: functional; conditions: B16-F10, 336 h, time 14 day, read-out: TGI
[3] = Cmax in Sprague-Dawley rat at 2 mg/kg, iv measured upto 12 hrs by UPLC-MS/ESI analysis; type: ADME, organism-based; parameters: dose 2 mg/kg, time < 12 hrs, route iv; conditions: in vivo
[4] = Antiproliferative activity against parental human A549S cells assessed as inhibition of cell proliferation incubated for 48 hrs by MTT assay; type: functional, cell-based
A2780/Taxol = assay: Antiproliferative activity against paclitaxel resistant human A2780/Taxol cells assessed as inhibition of cell proliferation incubated for 48 hrs by MTT assay; type: functional, cell-based
MCF7 = assay: Antiproliferative activity against human MCF7 cells assessed as inhibition of cell proliferation incubated for 48 hrs by MTT assay; type: functional, cell-based; conditions: MCF7, 48 h
[5] = Resistance index, ratio of IC50 for antiproliferative activity against paclitaxel resistant human A549/TxR cells to IC50 for antiproliferative activity against parental human A549S cells; type: functional
HepG2 [6] = assay: Inhibition of colony formation in human HepG2 cells incubated for 24 hrs by crystal violet staining based analysis; type: functional, cell-based; conditions: dose 0.5-5 nM
Tubulin (Sus scrofa) = Tubulin (Sus scrofa) (UniProt P02554+P02550); assay: (§1) Inhibition of pig brain tubulin polymerization in the presence of GTP by spectrophotometric analysis; type: tissue-based
Tubulin [7] = molecular target: Tubulin (Sus scrofa, UniProt P02554+P02550); assay: as §1; type: tissue-based
Tubulin (Homo sapiens) = Tubulin (Homo sapiens) (UniProt P68371+Q9H4B7+P0DPH7+P68366+Q13509+Q71U36+P04350+Q3ZCM7+P07437+P68363+Q9BQE3+Q6PEY2+Q13885+Q9BVA1+Q9BUF5); assay: Disruption of microtubule network in human HepG2 cells cytosol incubated for 12 hrs by DAPI staining based fluorescence microscopic analysis; type: subcellular; conditions: dose 0.5-5 nM
Tubulin [8] = assay: Binding affinity to tubulin (unknown origin) assessed as affinity constant by SPR analysis; type: protein-complex assay, Homo sapiens
HepG2 [9] = assay: Cell cycle arrest in human HepG2 cells assessed as accumulation of cells at G1 phase at 1 nM incubated for 48 hrs by RNaseA/PI staining based flow cytometric analysis (reference value: 56.11%); type: functional
HepG2 [10] = assay: Cell cycle arrest in human HepG2 cells assessed as accumulation of cells at […] at 5 nM incubated for 48 hrs by RNaseA/PI staining based flow cytometric analysis (reference value: 23.81%); type: functional
HepG2 [11] = assay: Induction of apoptosis in human HepG2 cells assessed as viable cells at 0.5 nM incubated for 48 hrs by Annexin V-FITC/PI staining based flow cytometric analysis (reference value: 87.6%); type: functional; conditions: read-out: Activity
HepG2 [12] = assay: Induction of apoptosis in human HepG2 cells assessed as viable cells at 1 nM incubated for 48 hrs by Annexin V-FITC/PI staining based flow cytometric analysis (reference value: 87.6%); type: functional; conditions: read-out: Activity
HepG2 [13] = assay: Induction of apoptosis in human HepG2 cells assessed as viable cells at 5 nM incubated for 48 hrs by Annexin V-FITC/PI staining based flow cytometric analysis (reference value: 87.6%); type: functional; conditions: read-out: Activity
HepG2 [14] = assay: Induction of apoptosis in human HepG2 cells assessed as early apoptotic cells at 5 nM incubated for 48 hrs by Annexin V-FITC/PI staining based flow cytometric analysis (reference value: 7.01 %); type: functional
HepG2 [15] = assay: Induction of apoptosis in human HepG2 cells assessed as late apoptotic cells at 5 nM incubated for 48 hrs by Annexin V-FITC/PI staining based flow cytometric analysis (reference value: 4.96 %); type: functional
HepG2 [16] = assay: Induction of apoptosis in human HepG2 cells assessed as necrotic cells at 5 nM incubated for 48 hrs by Annexin V-FITC/PI staining based flow cytometric analysis (reference value: 0.443%); type: functional
HepG2 [17] = assay: Antimigratory activity in human HepG2 cells assessed as reduction in recovery area at 1 nM incubated for 24 hrs by wound healing assay (reference value: 65.84%); type: functional; parameters: scale not given: the % may be the effect or the level left
HepG2 [18] = assay: Antimigratory activity in human HepG2 cells assessed as reduction in recovery area at 5 nM incubated for 24 hrs by wound healing assay (reference value: 65.84%); type: functional; parameters: scale not given: the % may be the effect or the level left
[19] = AUC(0 to t) in Sprague-Dawley rat at 2 mg/kg, iv measured upto 12 hrs by UPLC-MS/ESI analysis; type: ADME, organism-based; parameters: time < 12 hrs, dose 2 mg/kg, route iv; conditions: in vivo
[20] = AUC(0 to infinity) in Sprague-Dawley rat at 2 mg/kg, iv measured upto 12 hrs by UPLC-MS/ESI analysis; type: ADME, organism-based; parameters: dose 2 mg/kg, time < 12 hrs, route iv; conditions: in vivo
[21] = Half-life in Sprague-Dawley rat at 2 mg/kg, iv measured upto 12 hrs by UPLC-MS/ESI analysis; type: ADME, organism-based; conditions: in vivo
[22] = Clearance in Sprague-Dawley rat at 2 mg/kg, iv measured upto 12 hrs by UPLC-MS/ESI analysis; type: ADME, organism-based; conditions: in vivo
[23] = Apparent volume of distribution in Sprague-Dawley rat at 2 mg/kg, iv measured upto 12 hrs by UPLC-MS/ESI analysis; type: ADME, organism-based; conditions: in vivo, read-out: Vz
[24] = AUC (0 to infinity) in Sprague-Dawley rat at 20 mg/kg, po measured upto 12 hrs by UPLC-MS/ESI analysis; type: ADME, organism-based; parameters: dose 20 mg/kg, time < 12 hrs, route po; conditions: in vivo
[25] = MRT (0 to infinity) in Sprague-Dawley rat at 20 mg/kg, po measured upto 12 hrs by UPLC-MS/ESI analysis; type: ADME, organism-based; conditions: in vivo
[26] = Oral bioavailability in Sprague-Dawley rat at 20 mg/kg measured upto 12 hrs by UPLC-MS/ESI analysis; type: ADME, organism-based; conditions: in vivo
[27] = Acute toxicity in C57 mouse assessed as survival rate at 51.2 mg/kg, po administered daily for 14 days relative to control; type: organism-based; conditions: in vivo, time 14 day, read-out: Activity
[28] = Acute toxicity in C57 mouse assessed as survival rate at 64 mg/kg, po administered daily for 14 days relative to control; type: organism-based; conditions: in vivo, time 14 day, read-out: Activity
[29] = Acute toxicity in C57 mouse assessed as survival rate at 80 mg/kg, po administered daily for 14 days relative to control; type: organism-based; conditions: in vivo, time 14 day, read-out: Activity
[30] = Acute toxicity in C57 mouse assessed as lethal dose administered orally daily for 14 days; conditions: in vivo, route po, time 14 day
B16-F10 [31] = assay: Antitumor activity against mouse B16-F10 cells implanted in C57 mouse assessed as tumor growth inhibition at 2.5 mg/kg, ip administered every day for 14 days in the presence of NP19 relative to control; type: functional; conditions: B16-F10, 336 h, time 14 day, read-out: TGI
[32] = Toxicity in C57 mouse implanted with mouse B16-F10 cells assessed as pathological changes in liver at 5 mg/kg, ip administered every day for 14 days by H&E staining based microscopic analysis; type: organism-based; conditions: in vivo, 336 h, time 14 day
[33] = Toxicity in C57 mouse implanted with mouse B16-F10 cells assessed as pathological changes in liver at 2.5 mg/kg, ip administered every day for 14 days in the presence of NP19 by H&E staining based microscopic analysis; type: organism-based; conditions: in vivo, 336 h, time 14 day

Sequence of Tubulin (Sus scrofa) (P02550 whole entry, looked up): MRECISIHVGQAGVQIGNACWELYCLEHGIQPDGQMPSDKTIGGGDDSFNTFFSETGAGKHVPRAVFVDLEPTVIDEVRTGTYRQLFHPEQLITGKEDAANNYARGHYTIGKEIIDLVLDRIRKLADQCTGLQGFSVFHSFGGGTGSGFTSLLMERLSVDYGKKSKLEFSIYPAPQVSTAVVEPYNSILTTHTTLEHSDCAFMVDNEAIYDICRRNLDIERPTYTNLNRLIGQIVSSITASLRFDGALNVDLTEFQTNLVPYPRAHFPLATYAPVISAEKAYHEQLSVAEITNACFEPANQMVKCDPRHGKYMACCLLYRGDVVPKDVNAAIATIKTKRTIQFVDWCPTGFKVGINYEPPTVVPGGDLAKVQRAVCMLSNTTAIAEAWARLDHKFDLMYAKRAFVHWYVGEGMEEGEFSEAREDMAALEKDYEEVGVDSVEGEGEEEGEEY
Sequence of Tubulin (Sus scrofa) (P02554 whole entry, looked up): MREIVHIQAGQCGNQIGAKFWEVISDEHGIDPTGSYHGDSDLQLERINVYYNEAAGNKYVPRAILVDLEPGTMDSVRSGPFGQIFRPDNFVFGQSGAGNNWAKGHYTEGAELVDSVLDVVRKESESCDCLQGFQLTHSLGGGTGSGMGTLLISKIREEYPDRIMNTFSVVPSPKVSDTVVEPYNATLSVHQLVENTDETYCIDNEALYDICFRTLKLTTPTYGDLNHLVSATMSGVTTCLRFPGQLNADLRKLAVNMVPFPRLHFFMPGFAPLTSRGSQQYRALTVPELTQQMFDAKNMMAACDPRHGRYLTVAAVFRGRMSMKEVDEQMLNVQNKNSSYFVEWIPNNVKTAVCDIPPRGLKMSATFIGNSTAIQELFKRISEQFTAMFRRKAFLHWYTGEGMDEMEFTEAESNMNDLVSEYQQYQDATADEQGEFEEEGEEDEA

COc1cc(-c2nccc3[nH]c(-c4cccc5c4ccn5C)nc23)cc(OC)c1OC
Activity (B16-F10 [1]): 2.35%
inhibition in vivo at 5 mg/kg (B16-F10 [2]): 63%
Cmax [3]: 1730 ng/mL
IC50 [4]: 8.5 nM
IC50 (A2780/Taxol): 5.1 nM
IC50 (MCF7): 6 nM
Ratio IC50 [5]: 1.8
inhibition (HepG2 [6]): Dose-Dependent Effect
inhibition (Tubulin (Sus scrofa)): Dose-Dependent Effect
IC50 (Tubulin [7]): 1010 nM
Activity (Tubulin (Homo sapiens)): Dose-Dependent Effect
Kd (Tubulin [8]): 18300 nM
Activity (HepG2 [9]): 41.37%
Activity (HepG2 [10]): 22.8%
viability at 0.0005 µM (HepG2 [11]): 84.6%
viability at 0.001 µM (HepG2 [12]): 59.6%
viability at 0.005 µM (HepG2 [13]): 11%
Activity (HepG2 [14]): 83.1%
Activity (HepG2 [15]): 5.74%
Activity (HepG2 [16]): 0.201%
Activity (HepG2 [17]): 32.2%
Activity (HepG2 [18]): 22.16%
AUC(0-t) at 12 h [19]: 3060 ng·h/mL
AUC(0-inf) [20]: 3080 ng·h/mL
half-life [21]: 1.08 h
clearance [22]: 11.2 mL/min/kg
Vd [23]: 1.08 L/kg
AUC(0-inf) [24]: 3380 ng·h/mL
MRT inf [25]: 3.24 h
bioavailability [26]: 11%
survival at 336 h [27]: 90%
survival at 336 h [28]: 60%
survival at 336 h [29]: 20%
LD50 at 336 h [30]: 66.9 mg/kg
inhibition in vivo at 2.5 mg/kg (B16-F10 [31]): 77.8%
Activity [32]: Non-Toxic
Activity [33]: Non-Toxic
